The source of these data is ChEMBL document CHEMBL4813937, “Jatrophane Diterpenoids from Euphorbia peplus as Multidrug Resistance Modulators with Inhibitory Effects on the ATR-Chk-1 Pathway” (J Nat Prod, 2021).

The structures appear in SMILES notation. Activity calls are given as the source filed them. The calls are words filed in the database; no cut-off is given here.

In one assay the test system is A549. Put plainly: Induction of apoptosis in human A549 cells assessed as increase in PARP cleavage at 25 uM incubated for 48 hrs by Western blotting analysis. It counts as functional, cell-based. For orientation: In western blotting, separated proteins are transferred to a membrane and probed.
For `CC[C@@]1(O)C(=O)OCc2c1cc1n(c2=O)Cc2cc3ccccc3nc2-1`, the outcome was inactive.

Tested on in a further assay: not listed separately
Description: Inhibition of ATR/Chk1 pathway in human A549 cells assessed as suppression of […]-induced phosphorylation of Chk1 on serine-345 residue at 20 uM incubated for 12 hrs by Western blotting analysis. It is filed as cell-based.
Take `C=C1[C@H](OC(C)=O)[C@H]2[C@@H](OC(=O)c3ccccc3)[C@](C)(O)C[C@]2(O)C(=O)[C@@H](C)/C=C/C(C)(C)C(=O)[C@H](OC(C)=O)[C@H]1OC(C)=O`: the inhibition result was “Active”.
Same read-out and setting: the result for `C=C1[C@H](OC(C)=O)[C@@H](OC(C)=O)[C@@H](OC(C)=O)C(C)(C)/C=C/[C@H](C)[C@H](OC(C)=O)[C@@]2(O)C[C@@](C)(OC(C)=O)[C@H](OC(=O)c3ccccc3)[C@@H]2[C@H]1OC(C)=O` reads “Active”; that for `C=C1[C@H](OC(C)=O)[C@H]2[C@@H](OC(=O)c3ccccc3)[C@](C)(OC(C)=O)C[C@]2(O)C(=O)[C@@H](C)/C=C/C(C)(C)C(=O)[C@H](OC(C)=O)[C@H]1OC(C)=O`, “Active”.
As for `C=C1[C@H](OC(C)=O)CC(=O)C(C)(C)/C=C/[C@H](C)C(=O)[C@@]2(O)C[C@@](C)(O)[C@H](OC(=O)c3ccccc3)[C@@H]2[C@H]1OC(C)=O`, the inhibition result is “Active”.
Regarding `C=C1[C@H](OC(=O)C(C)C)[C@@H](OC(C)=O)[C@@H](OC(C)=O)C(C)(C)/C=C/[C@H](C)[C@H](OC(C)=O)[C@@]2(O)C[C@@](C)(OC(C)=O)[C@H](OC(=O)c3ccccc3)[C@@H]2[C@H]1OC(C)=O`, the inhibition result is “Active”.
